Where a SMILES comes first, the peptide text is derived from it. Bridges are numbered along the chain shown (N, C = ends).

The text below walks through data of patent publication US20140187470A1 (Synergy Pharmaceuticals Inc., priority 2013, published 2014).

One data set relates to CaCo-2 cells. Put plainly: 3H-taurocholate (bile acid) absorption by CaCo-2 monolayer. It is filed as cell-based, human. The settings on record: for Absorption of 3H-taurocholate (kinetics experiment): 16-day grown CaCo-2 monolayers, up to 60 minutes incubation; for Absorption of 3H-taurocholate (kinetics experiment) / Absorption of 3H-taurocholate (bar graph experiment): 30 minutes pre-incubation; for Absorption of 3H-taurocholate (bar graph experiment): CaCo-2 cells grown for 20 days, 60 minutes incubation, quadruplets. How it is done: (§1) CaCo-2 cell culture: CaCo-2, human colon carcinoma cells, were obtained from American Type Culture Collection (ATCC) and cultured in DMEM medium containing 10% fetal bovine serum, 1% penicillin-streptomycin, 2 mM L-glutamine, 1% non-essential-amino acids. Cells were fed fresh medium every third day and grown for 16-21 days to form completely differentiated monolayer. Fully differentiated CaCo-2 cells are known to express high density of GC-C receptors.
Preparation of ^3H-taurocholate Cocktail: Phosphatidyl choline was dissolved in ethanol to make 50 mM stock solution. Calculated volume of the stock solution of phosphatidyl choline was mixed with 3H-taurocholate in a plastic tube and dried under argon gas at 80° C. The dried material was dissolved in transport buffer to get the final concentration of phosphatidyl choline (0.5 mM) and of 3H-taurocholate 10 μCi/mL.
CaCo-2 cells were grown in 24-well plates for 16 days to allow complete monolayer formation and cell differentiation. Completely differentiated monolayers were then pre-incubated with 250 μL of the transport buffer (HEPES 25 mM, NaCl 120 mM, KCl 5.4 mM, CaCl2 1.8 mM and MgSO4, pH 7.5) containing either SP-304 alone or in combination with PDE inhibitors such as IBMX, SS and ZAP. The monolayers were pre-incubated with transport buffer containing either of the following: vehicle (control), 1 mM 8-bromo-cGMP, 500 μM SS, 500 μM ZAP, 1 μM SP-304, 0.1 μM SP-304+500 μM SS and 1 μM SP-304+500 μM ZAP. After the indicated pre-incubation time, 50 μL of ^3H-taurocholate (1 μCi) cocktail was added and cells were incubated for an additional 60 minutes, washed three times with ice cold PBS. Cells were lysed with 0.5 N NaOH for 4 hours and radioactivity in the lysate was counted in a scintillation counter.
16-day grown monolayers of CaCo-2 cells in 24-well plates were pre-incubated with transport buffer containing the compounds as indicated in the figure for 30 minutes. After the pre-incubation, 1 μCi of ^3H-taurocholate cocktail was added in each well and cells were further incubated for 60 minutes. Cells were washed three times with ice cold PBS and lysed with 0.5 N NaOH and lysates were counted for radioactivity in a scintillation counter. Results are expressed as an average of three determinations. Results on the x-axis were plotted in logarithmic scale.
After the pre-incubation, 1 μCi of ^3H-taurocholate cocktail was added in each well and cells were further incubated for 60 minutes. Cells were washed three times with ice cold PBS and lysed with 0.5 N NaOH and lysates were counted for radioactivity in a scintillation counter. This experiment was run in quadruplets and results are expressed as mean±SD.
The procedure used in this experiment was essentially the same except that a lower concentration of ZAP (250 μM) in combination experiments with SP-304.

The target in a further data set is T1, GC-C receptors (Homo sapiens, UniProt P25092).
T1 construct: Fully differentiated CaCo-2 cells are known to express high density of GC-C receptors; host or cells: CaCo-2 human colon carcinoma cells, differentiated monolayers
Briefly: Cyclic GMP stimulation assay in CaCo-2 cells. The format is cell-based. The settings on record: CaCo-2 monolayers; for Effect of PDE inhibitor on stimulation of cGMP production by SP-304: in combination with SP-304, 30 minutes. How it is done: as §1
Cyclic GMP stimulation assay: Biological activity of the GCRA peptides was assayed as previously reported (5). Briefly, 16 days grown monolayers of CaCo-2 cells in 24-well plates were washed twice with 250 μl of DMEM containing 50 mM HEPES (pH 7.4), pre-incubated at 37° C. for 10 min with 250 μl of DMEM containing 50 mM HEPES (pH 7.4) and 1 mM isobutylmethylxanthine (IBMX), followed by incubation with GCRA peptides (0.1 nM to 10 μM) for 30 min. The medium was aspirated, and the reaction was terminated by the addition of 3% perchloric acid. Following centrifugation, and neutralization with 0.1 N NaOH, the supernatant was used directly for measurements of cGMP using an ELISA kit (Caymen Chemical, Ann Arbor, Mich.)
Monolayers were treated 500 μL of serum free DMEM for 30 minutes with either SP-304 alone or in combination with phosphodiesterase inhibitors such as, 3-isobutyl-1-methylxanthine (IBMX), sulindac sulfone (SS) and zaprinast (ZAP). After the incubation, monolayers were lysed with 250 μL of 3% perchloric acid. The lysate was neutralized with 0.1 N NaOH and used for ELISA to determine the concentration of cGMP. The assay procedure was essentially the same as described (5). […] Since CaCo-2 cells overexpress phosphodiesterases (PDE), GC-C agonists are used in combination with PDE inhibitors to measure the actual stimulatory effect of GC-C agonists.

Data set [1] has as its system patients with chronic idiopathic constipation (CIC). Briefly: Plecanatide Phase IIb/III trial in patients with chronic idiopathic constipation. It is filed as in vivo, human. How it is done: The randomized, double-blind, placebo-controlled, repeat-dose, dose-ranging study was designed to determine whether plecanatide could increase the number of complete spontaneous bowel movements (CSBM's) and impact other parameters such as stool consistency, straining and time to first bowel movement in patients with CIC. The 12-week study, which included 951 CIC patients at 113 clinical sites in the United States, evaluated 3 doses of plecanatide (0.3, 1.0, 3.0 mg) plus a placebo arm.

For a further data set, the system named is animal models. Briefly: Animal models, oral administration of plecanatide. The format is in vivo.
A short description of data set [2]: In vitro proteolytic stability using simulated gastric fluid (SGF) digestion, HPLC analysis. The format is in vitro ADME. As to conditions: 0 min vs 120 min, HPLC (FIG. 1B). How it is done:
FIG. 1B is a schematic representation of the results of HPLC chromatographic analyses of SP-304 samples after incubation with SGF at indicated times (0 min in the upper panel and 120 min in the lower panel). […] The arrows indicate the elution position of SP-304.
The stability of the GRCA peptide according to the invention is determined in the presence of simulated gastric fluid (SGF). GRCA peptide (final concentration of 8.5 mg/ml) is incubated in SGF (Proteose peptone (8.3 g/liter; Difco), D-Glucose (3.5 g/liter; Sigma), NaCl (2.05 g/liter; Sigma), KH2PO4 (0.6 g/liter; Sigma), CaCl2 (0.11 g/liter), KCl (0.37 g/liter; Sigma), Porcine bile (final 1× concentration 0.05 g/liter; Sigma) in PBS, Lysozyme (final 1× concentration 0.10 g/liter; Sigma) in PBS, Pepsin (final 1× concentration 0.0133 g/liter; Sigma) in PBS). SGF is made on the day of the experiment and the pH is adjusted to 2.0±0.1 using HCl or NaOH as necessary. After the pH adjustment, SGF is sterilized filtered with 0.22 μm membrane filters. SP-304 (final concentration of 8.5 mg/ml) is incubated in SGF at 37° C. for 0, 15, 30, 45, 60 and 120 min in triplicate aliquots. Following incubations, samples are snap frozen in dry ice then are stored in a −80° C. freezer until they are assayed in duplicate.

Data set [3] can be described thus: In vitro proteolytic stability using simulated intestinal fluid (SIF) digestion, HPLC analysis. The format is in vitro ADME. Here is the method: FIG. 2B is a schematic representation of the results of HPLC chromatographic analyses of SP304 samples after incubation with (A) heat inactivated SIF for 300 min or with (B) SIF for 120 min. […] Arrows indicate the position of SP-304.
Arrow indicates the elution position of SP-304 peptide. […] These new peptide peaks represent the possible degradation products of SP-304.
Arrow indicates the elution position of SP-332 peptide.
Arrows indicate the elution position of SP-333.
The stability of the GRCA peptide is also evaluated against digestion with simulated intestinal fluid (SIF). SIF solution was prepared by the method as described in the United States Pharmacopoeia, 24th edition, p2236. The recipe to prepare SIF solution is as described below. The SIF solution contains NaCl (2.05 g/liter; Sigma), KH2PO4 (0.6 g/liter; Sigma), CaCl2 (0.11 g/liter), KCl (0.37 g/liter; Sigma), and Pacreatin 10 mg/ml. The pH is adjusted to 6 and the solution is filter sterilized. A solution of SP-304 (8.5 mg/ml) is incubated in […] at 37° C. for 0, 30, 60, 90, 120, 150 and 300 min in triplicate aliquots. Following incubations, samples are removed and snap frozen with dry ice and stored in a −80° C. freezer until they are assayed in duplicate. F
The integrity of GRCA peptide is evaluated by HPLC by essentially using the method described for SGF digestion.

Data set [4] can be described thus: simulated gastric fluid (SGF) with Pepsin (0.0133 g/liter), Lysozyme, Porcine bile, pH 2.0±0.1. As to conditions: 37° C., up to 120 min.
Where [5] appears, read: Phase IIb/III clinical study, oral, CIC.

T1 sequence (P25092 24-1073): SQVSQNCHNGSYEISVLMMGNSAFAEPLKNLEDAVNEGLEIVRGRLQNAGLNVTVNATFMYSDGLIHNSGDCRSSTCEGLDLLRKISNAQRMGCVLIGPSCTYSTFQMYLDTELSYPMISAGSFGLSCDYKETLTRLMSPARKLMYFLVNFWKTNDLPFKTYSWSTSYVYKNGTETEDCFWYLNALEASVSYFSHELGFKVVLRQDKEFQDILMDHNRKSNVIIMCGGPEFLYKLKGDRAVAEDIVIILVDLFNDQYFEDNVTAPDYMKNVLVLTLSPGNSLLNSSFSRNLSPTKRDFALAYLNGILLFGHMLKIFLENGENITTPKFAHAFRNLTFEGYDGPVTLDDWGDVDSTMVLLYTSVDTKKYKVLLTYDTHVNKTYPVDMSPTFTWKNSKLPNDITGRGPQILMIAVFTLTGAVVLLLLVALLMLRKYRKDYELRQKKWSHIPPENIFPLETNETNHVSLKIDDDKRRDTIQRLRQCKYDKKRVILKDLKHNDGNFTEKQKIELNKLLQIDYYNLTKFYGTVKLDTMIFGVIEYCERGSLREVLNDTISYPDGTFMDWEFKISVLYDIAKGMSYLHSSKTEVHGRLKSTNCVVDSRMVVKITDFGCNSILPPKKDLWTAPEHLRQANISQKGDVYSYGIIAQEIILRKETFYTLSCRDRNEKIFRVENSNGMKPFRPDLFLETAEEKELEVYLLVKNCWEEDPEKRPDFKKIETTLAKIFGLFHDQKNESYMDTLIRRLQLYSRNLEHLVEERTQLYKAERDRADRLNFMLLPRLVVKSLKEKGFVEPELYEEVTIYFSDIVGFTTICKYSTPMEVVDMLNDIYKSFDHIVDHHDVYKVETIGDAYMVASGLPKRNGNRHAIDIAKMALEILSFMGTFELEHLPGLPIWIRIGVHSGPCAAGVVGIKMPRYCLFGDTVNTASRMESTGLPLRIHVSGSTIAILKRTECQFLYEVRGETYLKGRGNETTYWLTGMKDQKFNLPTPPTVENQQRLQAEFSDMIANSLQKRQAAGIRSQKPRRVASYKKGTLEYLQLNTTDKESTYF

In the case of `Nc1nc2c(nc(Br)n2[C@@H]2O[C@@H]3COP(=O)(O)O[C@H]3[C@H]2O)c(=O)[nH]1` [8-Br-cGMP, 8-bromo-cGMP, reference compound], in the data set on CaCo-2 cells, the “Absorption of 3H-taurocholate (kinetics experiment)” value was “inhibited” and the “Absorption of 3H-taurocholate (bar graph experiment)” value is “inhibited”.
For `CC(C)Cn1c(=O)n(C)c(=O)c2[nH]cnc21` [IBMX, 3-isobutyl-1-methylxanthine], the “Effect of PDE inhibitor on stimulation of cGMP production by SP-304” value (“Effect of PDE inhibitor” below) on GC-C receptors is recorded as “synergistic effects”.
With `CC(C)C[C@H](NC(=O)[C@@H]1CSSC[C@@H]2NC(=O)[C@H](CC(C)C)NC(=O)[C@H](CCC(=O)O)NC(=O)[C@@H](NC(=O)[C@H](CCC(=O)O)NC(=O)[C@H](CC(=O)O)NC(=O)[C@@H](N)CC(N)=O)CSSC[C@H](NC(=O)[C@H](C)NC(=O)[C@H](C(C)C)NC(=O)[C@H](CC(N)=O)NC(=O)[C@H](C(C)C)NC2=O)C(=O)N[C@@H]([C@@H](C)O)C(=O)NCC(=O)N1)C(=O)O` [SP-304, Asn^1-Asp^2-Glu^3-Cys^4-Glu^5-Leu^6-Cys^7-Val^8-Asn^9-Val^10-Ala^11-Cys^12-Thr^13-Gly^14-Cys^15-Leu^16] (H-NDECELCVNVACTGCL-OH; disulfide 4-12, 7-15; N-terminus assumed), in data set [1] (3 mg dose, 12-week treatment, CIC patients (placebo 10.7%), p=0.009), the Overall responder rate is given as 19%. For the same compound, the “Mean increase in CSBMs over the 12-week treatment period” value in data set [1] (3 mg dose, CIC patients, p<0.001) is recorded as 2.13. This compound had an Incidence of diarrhea in data set [1] (3 mg, CIC patients (placebo incidence 1.3%)) of 9.7%. For the same compound, the Key secondary endpoints result in data set [1] (Phase IIb/III clinical study, CIC patients) is recorded as “statistically significant improvements”. Also, in data set [1] (setting [5]), the “Primary and key secondary endpoints of the study” value is “met the primary and key secondary endpoints”; the Tolerability entry was “well tolerated”. In addition, in the data set on animal models, the GI inflammation entry is “ameliorates GI inflammation” and the Intestinal secretion result is “promotes intestinal secretion”. The “HPLC major peak after incubation with SGF” value in data set [2] is “resistant to SGF digestion”. In addition, at GC-C receptors (30 minutes), the “cGMP production by CaCo-2 cells in response to stimulation” value is listed as “produced cGMP”. The “HPLC peak after incubation with SIF for 60 min” value in data set [3] (0 vs 60 min, HPLC (FIG. 7D)) is reported as “completely vanished”. For the same compound, in data set [3] (120 min, HPLC (FIG. 2B, 7E, 7F)), the “HPLC peak after incubation with SIF for 120 min” value is listed as “completely converted SP-304 into another peptide”. Further, in the data set with CaCo-2 cells, the “Absorption of 3H-taurocholate (kinetics experiment)” value was “inhibited” and the “Absorption of 3H-taurocholate (bar graph experiment)” value was “inhibited”. In the data set with CaCo-2 cells (SP-304 0.1 μM alone), the “Inhibition in absorption of 3H-taurocholate, SP-304 alone” value is on record as “did not produce much inhibition”. In addition, in the data set on CaCo-2 cells (SP-304 0.1 μM in combination with ZAP (250 μM)), the “Inhibition of 3H-taurocholate absorption, SP-304 in combination with ZAP” value is recorded as “greater effect on inhibition”.
As to `CC1=C(CC(=O)O)c2cc(F)ccc2/C1=C\c1ccc(S(C)(=O)=O)cc1` [SS, sulindac sulfone], the “Effect of PDE inhibitor” value at GC-C receptors was “synergistic effects”.
On to `CCCOc1ccccc1-c1nc2nn[nH]c2c(=O)[nH]1` [ZAP, zaprinast], for which the “Production of cGMP among the PDE inhibitors” value at GC-C receptors (in combination with SP-304) is on record as “maximum production of cGMP”. On GC-C receptors, the “Effect of PDE inhibitor” value is “synergistic effects”.
As to “Asn^1-Asp^2-Glu^3-Cys^4-Glu^5-Leu^6-Cys^7-Val^8-Asn^9-Val^10-Ala^11-Cys^12-Thr^13-Gly^14-Cys^15-Leu^16”, the not cleaved entry in data set [4] is given as “major peak did not change after 120 min”.
